{
  "source": "patent US8153397B2",
  "about": "(priority 1993, dated 2012)",
  "data": [
    {"target": "rBoNT/A LC (Clostridium botulinum, UniProt P0DPI0)", "sequence (P0DPI0 3-448, added parts left off)": "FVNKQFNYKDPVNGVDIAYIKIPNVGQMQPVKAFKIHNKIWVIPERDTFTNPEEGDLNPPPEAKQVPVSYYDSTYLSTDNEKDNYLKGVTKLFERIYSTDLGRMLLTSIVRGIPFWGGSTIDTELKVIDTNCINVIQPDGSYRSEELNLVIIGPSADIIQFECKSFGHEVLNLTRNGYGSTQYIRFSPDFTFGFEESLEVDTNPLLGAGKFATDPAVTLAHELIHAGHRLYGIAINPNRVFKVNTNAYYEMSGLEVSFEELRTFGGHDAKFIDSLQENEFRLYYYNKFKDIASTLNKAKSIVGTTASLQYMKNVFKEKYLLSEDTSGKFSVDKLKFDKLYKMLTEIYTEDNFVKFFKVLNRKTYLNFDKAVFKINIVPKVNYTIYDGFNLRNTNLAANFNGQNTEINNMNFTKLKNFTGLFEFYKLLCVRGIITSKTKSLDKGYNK", "type": "biochemical", "units": {"% Activity": "%"}, "values": [
      {"compound": "[Ca+2].[Cl-].[Cl-]", "note": "[CaCl2]", "% Activity": 75},
      {"compound": "O=S(=O)([O-])[O-].[Cu+2]", "note": "[CuSO4]", "% Activity": 95},
      {"compound": "O[C@H](CS)[C@@H](O)CS", "note": "[Dithioerythreitol]", "% Activity": 60, "effect on activity of the rBoNT/A LC": "inhibited the activity to various extents"},
      {"compound": "O[C@H](CS)[C@H](O)CS", "note": "[Dithiothreitol]", "% Activity": 45, "effect on activity of the rBoNT/A LC": "significantly inhibited"},
      {"compound": "O=C(O)CN(CCN(CC(=O)O)CC(=O)O)CC(=O)O", "note": "[EDTA]", "% Activity": "00", "effect on activity of the rBoNT/A LC": "completely inhibited"},
      {"compound": "[Cl][Fe][Cl]", "note": "[FeCl2]", "% Activity": 35},
      {"compound": "N[C@@H](CCC(=O)N[C@@H](CS)C(=O)NCC(=O)O)C(=O)O", "note": "[Glutathione, reduced]", "% Activity": 75, "effect on activity of the rBoNT/A LC": "inhibited the activity to various extents"},
      {"compound": "NC(=O)CI", "note": "[Iodoacetamide]", "% Activity": 80},
      {"compound": "N[C@@H](CS)C(=O)O", "note": "[L-Cysteine]", "% Activity": 20, "effect on activity of the rBoNT/A LC": "inhibited the activity to various extents"},
      {"compound": "[Cl][Hg][Cl]", "note": "[Mercuric chloride]", "% Activity": "00", "effect on activity of the rBoNT/A LC": "completely abolished"},
      {"compound": "[Cl-].[Cl-].[Mg+2]", "note": "[MgCl2]", "% Activity": 90},
      {"compound": "[Cl][Mn][Cl]", "note": "[MnCl2]", "% Activity": 40, "effect on activity of the rBoNT/A LC": "inhibited the LC reaction to various extents"},
      {"compound": "O=S(=O)([O-])[O-].[Ni+2]", "note": "[NiSO4]", "% Activity": 55, "effect on activity of the rBoNT/A LC": "inhibited the LC reaction to various extents"},
      {"compound": "N[C@@H](CCC(=O)N[C@@H](CSN=O)C(=O)NCC(=O)O)C(=O)O", "note": "[S-Nitrosoglutathione]", "% Activity": 55},
      {"compound": "[Cl-].[Cl-].[Zn+2]", "note": "[ZnCl2]", "stimulation of activity": "5%-10%"},
      {"compound": "O=C(O)c1cc[c]([Hg][Cl])cc1", "note": "[p-C1-Mercuribenzoate]", "% Activity": "00", "effect on activity of the rBoNT/A LC": "completely abolished"},
      {"compound": "OCCS", "note": "[β-Mercaptoethanol]", "% Activity": 120, "effect on activity of the rBoNT/A LC": "stimulated the activity"},
      {"compound": "CoCl2", "% Activity": 90}
    ]}
  ]
}
